These results are taken from patent US6387930B1, “Piperidine derivatives useful as CCR5 antagonists” (Schering Corporation, priority 1999, dated 2002).

The target in this test is T1, human CCR5 chemokine receptor (Homo sapiens, UniProt P51681).
T1 construct: expressed in transfected cells; host or cells: NIH 3T3 cells (mouse fibroblasts), membrane preparation
T1 sequence (P51681 whole entry): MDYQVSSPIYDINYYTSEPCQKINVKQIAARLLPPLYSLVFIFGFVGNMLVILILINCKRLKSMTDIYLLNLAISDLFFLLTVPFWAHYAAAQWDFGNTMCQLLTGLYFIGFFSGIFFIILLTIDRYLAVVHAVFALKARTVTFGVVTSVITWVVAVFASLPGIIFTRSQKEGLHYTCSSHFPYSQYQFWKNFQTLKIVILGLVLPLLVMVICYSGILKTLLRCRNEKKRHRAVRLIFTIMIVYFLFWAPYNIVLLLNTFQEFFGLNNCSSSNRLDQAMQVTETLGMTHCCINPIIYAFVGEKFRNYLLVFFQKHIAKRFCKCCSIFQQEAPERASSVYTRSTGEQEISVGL
Description: CCR5 membrane binding assay (inhibition of RANTES binding). Conditions: membranes from NIH 3T3 cells expressing human CCR5; 125I-RANTES. On the procedure: CCR5 Membrane Binding Assay:
A high throughput screen utilizing a CCR5 membrane binding assay identifies inhibitors of RANTES binding. This assay utilizes membranes prepared from NIH 3T3 cells expressing the human CCR5 chemokine receptor which have the ability to bind to RANTES, a natural ligand for the receptor. Using a 96-well plate format, membrane preparations are incubated with ^125I-RANTES in the presence or absence of compound for one hour. Compounds are serially diluted over a wide range of 0.001 ug/ml to 1 ug/ml and tested in triplicates. Reaction cocktails are harvested through glass fiber filters, and washed thoroughly. Total counts for replicates are averaged and data reported as the concentration required to inhibit 50 percent of total ^125I-RANTES binding.
Usually Ki stands for a dissociation constant, usually derived from enzyme kinetics or from competition with a known ligand. Low values mean a stronger hold on the target, high ones a looser hold on the target. In the case of `Cc1ccnc(C)c1C(=O)N1CCC(C)(N2CCC(C(Oc3ccccn3)c3ccc(Br)cc3)CC2)CC1` (single isomer, unassigned) [Example 4B], the affinity corresponds to a Ki of 0.5 nM.

Turning to `Cc1cccc(C)c1C(=O)N1CCC(C)(N2CCC(C(Oc3nccs3)c3ccc(Br)cc3)CC2)CC1` (stereo not shown) [Example 1J], affinity was put at a Ki of 1 nM.

`Cc1ccnc(C)c1C(=O)N1CCC(C)(N2CCC(C(Oc3ccccn3)c3ccc(C(F)(F)F)cc3)CC2)CC1` (stereo not shown) [Example 2G]: affinity was put at a Ki of 1.8 nM.

Take `CC1(N2CCC(C(Oc3ccccn3)c3ccc(C(F)(F)F)cc3)CC2)CCN(C(=O)c2c(Cl)cncc2Cl)CC1` (stereo not shown) [Example 2JJ]: affinity was put at a Ki of 0.58 nM.

In the case of `Cc1ccnc(C)c1C(=O)N1CCC(C)(N2CCC(C(Oc3cnccn3)c3ccc(S(C)(=O)=O)cc3)CC2)CC1` (stereo not shown) [Example 2S], the affinity, expressed as Ki, was 17.9 nM.

Take `CCO/N=C(\c1ccc(Br)cc1)C1CCN(C2(C)CCN(C(=O)c3c(C)cc(-c4ccncc4)cc3C)CC2)CC1` [Example 5AB]: the Ki was 0.1 nM.

In turn, `CO/N=C(\c1ccc(Br)cc1)C1CCN(C2(C)CCN(C(=O)c3c(C)ncnc3C)CC2)CC1` [Example 5L] showed a Ki of 7.9 nM.

Consider `CCO/N=C(\c1ccc(Br)cc1)C1CCN(C2(C)CCN(C(=O)c3c(C)ncnc3C)CC2)CC1` [Example 5N], for which the Ki was 1.7 nM.

With `CCO/N=C(\c1ccc(C(F)(F)F)cc1)C1CCN(C2(C)CCN(C(=O)c3c(Cl)cncc3Cl)CC2)CC1` [Example 6V], the Ki was determined as 0.8 nM. Compared with the last compound, the Ki is about 2.1-fold lower.

In turn, `CC1(N2CCC(Cc3ccc(Br)cc3)CC2)CCN(C(=O)c2cccc3ccccc23)CC1` [Example 9D] gave a Ki of 588 nM.
